Laboratory results reported in ChEMBL document CHEMBL3991601, “The target landscape of clinical kinase drugs” (Science, 2017).
pKd: −log10 of the molar value. Activity calls are given as the source filed them.

Columns and labels:
[1] = molecular target: T1, Serine/threonine-protein kinase Nek9 (Homo sapiens, UniProt Q8TD19)
T1 sequence (Q8TD19 whole entry): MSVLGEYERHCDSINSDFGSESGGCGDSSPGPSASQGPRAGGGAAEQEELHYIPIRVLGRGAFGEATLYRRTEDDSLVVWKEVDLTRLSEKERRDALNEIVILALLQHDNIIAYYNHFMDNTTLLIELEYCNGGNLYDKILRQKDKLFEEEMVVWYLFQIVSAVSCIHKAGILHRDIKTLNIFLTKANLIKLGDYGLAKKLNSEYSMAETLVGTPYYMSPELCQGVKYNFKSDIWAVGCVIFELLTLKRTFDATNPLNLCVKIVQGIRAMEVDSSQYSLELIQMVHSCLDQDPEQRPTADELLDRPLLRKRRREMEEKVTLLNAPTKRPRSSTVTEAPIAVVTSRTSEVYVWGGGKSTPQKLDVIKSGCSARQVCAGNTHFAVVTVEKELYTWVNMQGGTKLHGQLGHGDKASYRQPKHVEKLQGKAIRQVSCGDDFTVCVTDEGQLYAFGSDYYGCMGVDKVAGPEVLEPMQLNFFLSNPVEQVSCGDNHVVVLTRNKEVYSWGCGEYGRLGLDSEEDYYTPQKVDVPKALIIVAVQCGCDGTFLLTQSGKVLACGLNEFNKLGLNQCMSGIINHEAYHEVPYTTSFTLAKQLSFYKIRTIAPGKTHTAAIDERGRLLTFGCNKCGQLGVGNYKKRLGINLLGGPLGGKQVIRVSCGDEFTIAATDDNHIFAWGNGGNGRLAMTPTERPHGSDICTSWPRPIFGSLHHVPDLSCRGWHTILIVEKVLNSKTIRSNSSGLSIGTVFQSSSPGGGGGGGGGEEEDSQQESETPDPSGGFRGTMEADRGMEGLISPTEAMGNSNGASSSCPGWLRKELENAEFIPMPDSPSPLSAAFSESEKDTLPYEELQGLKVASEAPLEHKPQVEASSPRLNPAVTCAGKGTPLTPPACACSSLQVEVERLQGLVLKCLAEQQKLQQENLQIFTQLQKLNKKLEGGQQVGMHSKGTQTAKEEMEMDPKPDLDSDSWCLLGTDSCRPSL

[2] = molecular target: Atypical kinase COQ8A, mitochondrial (Homo sapiens, UniProt Q8NI60)
[3] = molecular target: Serine/threonine-protein kinase MRCK alpha (Homo sapiens, UniProt Q5VT25)
[4] = molecular target: T2, Beta-adrenergic receptor kinase 1 (Homo sapiens, UniProt P25098)
T2 sequence (P25098 whole entry): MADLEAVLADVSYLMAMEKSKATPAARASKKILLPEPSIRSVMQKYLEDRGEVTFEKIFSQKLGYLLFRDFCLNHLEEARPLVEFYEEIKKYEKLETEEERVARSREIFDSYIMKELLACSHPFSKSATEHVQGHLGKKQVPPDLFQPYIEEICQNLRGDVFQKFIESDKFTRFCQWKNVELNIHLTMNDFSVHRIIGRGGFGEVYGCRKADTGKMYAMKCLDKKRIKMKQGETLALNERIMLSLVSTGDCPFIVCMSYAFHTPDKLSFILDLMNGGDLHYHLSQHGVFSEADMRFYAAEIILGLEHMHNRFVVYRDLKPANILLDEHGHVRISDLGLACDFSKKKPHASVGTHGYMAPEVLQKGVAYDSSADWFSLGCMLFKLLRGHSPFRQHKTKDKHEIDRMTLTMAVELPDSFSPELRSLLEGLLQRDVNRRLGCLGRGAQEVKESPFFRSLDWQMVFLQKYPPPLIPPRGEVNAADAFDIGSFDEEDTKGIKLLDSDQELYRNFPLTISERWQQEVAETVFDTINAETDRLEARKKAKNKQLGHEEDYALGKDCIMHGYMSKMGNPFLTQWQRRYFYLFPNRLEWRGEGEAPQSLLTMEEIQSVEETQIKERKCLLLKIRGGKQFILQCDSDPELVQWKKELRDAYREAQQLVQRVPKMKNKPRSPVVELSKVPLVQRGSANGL

[5] = molecular target: Tyrosine-protein kinase HCK (Homo sapiens, UniProt P08631)
Activin receptor type-2B = Activin receptor type-2B (Homo sapiens, UniProt Q13705)
[6] = molecular target: Ribosomal protein S6 kinase alpha-3 (Homo sapiens, UniProt P51812)
Ephrin type-B receptor 3 = molecular target: T3, Ephrin type-B receptor 3 (Homo sapiens, UniProt P54753)
T3 sequence (P54753 whole entry): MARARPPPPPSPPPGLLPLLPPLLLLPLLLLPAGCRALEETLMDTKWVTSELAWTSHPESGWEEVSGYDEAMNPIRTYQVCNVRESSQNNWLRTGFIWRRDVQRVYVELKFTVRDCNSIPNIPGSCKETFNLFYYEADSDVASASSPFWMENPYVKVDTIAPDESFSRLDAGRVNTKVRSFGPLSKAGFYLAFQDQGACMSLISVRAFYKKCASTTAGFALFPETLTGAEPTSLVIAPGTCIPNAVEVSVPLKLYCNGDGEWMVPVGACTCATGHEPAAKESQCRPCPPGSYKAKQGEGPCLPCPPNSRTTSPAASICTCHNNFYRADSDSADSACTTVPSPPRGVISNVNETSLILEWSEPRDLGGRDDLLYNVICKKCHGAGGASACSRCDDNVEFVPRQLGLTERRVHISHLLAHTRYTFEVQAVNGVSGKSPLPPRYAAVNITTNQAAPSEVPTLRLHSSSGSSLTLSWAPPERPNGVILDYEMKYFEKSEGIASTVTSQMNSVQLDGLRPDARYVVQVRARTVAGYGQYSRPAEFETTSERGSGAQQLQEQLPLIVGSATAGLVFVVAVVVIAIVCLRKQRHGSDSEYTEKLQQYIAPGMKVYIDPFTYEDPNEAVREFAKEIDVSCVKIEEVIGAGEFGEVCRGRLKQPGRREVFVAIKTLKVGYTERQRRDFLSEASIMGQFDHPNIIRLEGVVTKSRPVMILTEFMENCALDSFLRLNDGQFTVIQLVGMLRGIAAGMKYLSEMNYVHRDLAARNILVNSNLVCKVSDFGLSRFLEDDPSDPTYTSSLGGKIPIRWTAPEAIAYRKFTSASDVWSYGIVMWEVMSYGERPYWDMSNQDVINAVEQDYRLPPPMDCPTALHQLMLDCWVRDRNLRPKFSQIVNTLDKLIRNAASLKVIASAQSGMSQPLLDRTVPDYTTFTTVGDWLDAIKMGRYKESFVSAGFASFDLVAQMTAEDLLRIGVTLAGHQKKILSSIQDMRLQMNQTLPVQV

[7] = molecular target: NADH dehydrogenase [ubiquinone] 1 alpha subcomplex subunit 13 (Homo sapiens, UniProt Q9P0J0)
[8] = molecular target: Eukaryotic translation initiation factor 2-alpha kinase 1 (Homo sapiens, UniProt Q9BQI3)
Note: in the data inactive means no Kd found up to 30 µM.

Atypical kinase COQ8A, mitochondrial, sequence (Q8NI60 whole entry): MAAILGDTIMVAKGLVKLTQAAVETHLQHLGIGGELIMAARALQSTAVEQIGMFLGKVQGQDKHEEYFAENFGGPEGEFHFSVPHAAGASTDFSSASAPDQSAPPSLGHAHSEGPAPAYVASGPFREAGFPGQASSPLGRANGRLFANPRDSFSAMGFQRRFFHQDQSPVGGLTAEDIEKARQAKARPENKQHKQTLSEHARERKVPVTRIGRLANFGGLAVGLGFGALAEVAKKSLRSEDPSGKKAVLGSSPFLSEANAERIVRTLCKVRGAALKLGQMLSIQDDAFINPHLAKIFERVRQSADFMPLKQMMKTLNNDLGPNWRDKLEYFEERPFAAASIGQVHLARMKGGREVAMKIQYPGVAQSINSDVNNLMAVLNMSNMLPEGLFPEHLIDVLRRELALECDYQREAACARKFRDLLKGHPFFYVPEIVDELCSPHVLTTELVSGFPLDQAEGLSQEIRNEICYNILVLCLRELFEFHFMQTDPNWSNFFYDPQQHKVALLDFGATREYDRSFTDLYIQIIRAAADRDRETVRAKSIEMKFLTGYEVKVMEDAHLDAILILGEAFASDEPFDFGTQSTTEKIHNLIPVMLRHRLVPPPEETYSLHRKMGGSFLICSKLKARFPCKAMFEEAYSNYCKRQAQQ
Serine/threonine-protein kinase MRCK alpha, sequence (Q5VT25 whole entry): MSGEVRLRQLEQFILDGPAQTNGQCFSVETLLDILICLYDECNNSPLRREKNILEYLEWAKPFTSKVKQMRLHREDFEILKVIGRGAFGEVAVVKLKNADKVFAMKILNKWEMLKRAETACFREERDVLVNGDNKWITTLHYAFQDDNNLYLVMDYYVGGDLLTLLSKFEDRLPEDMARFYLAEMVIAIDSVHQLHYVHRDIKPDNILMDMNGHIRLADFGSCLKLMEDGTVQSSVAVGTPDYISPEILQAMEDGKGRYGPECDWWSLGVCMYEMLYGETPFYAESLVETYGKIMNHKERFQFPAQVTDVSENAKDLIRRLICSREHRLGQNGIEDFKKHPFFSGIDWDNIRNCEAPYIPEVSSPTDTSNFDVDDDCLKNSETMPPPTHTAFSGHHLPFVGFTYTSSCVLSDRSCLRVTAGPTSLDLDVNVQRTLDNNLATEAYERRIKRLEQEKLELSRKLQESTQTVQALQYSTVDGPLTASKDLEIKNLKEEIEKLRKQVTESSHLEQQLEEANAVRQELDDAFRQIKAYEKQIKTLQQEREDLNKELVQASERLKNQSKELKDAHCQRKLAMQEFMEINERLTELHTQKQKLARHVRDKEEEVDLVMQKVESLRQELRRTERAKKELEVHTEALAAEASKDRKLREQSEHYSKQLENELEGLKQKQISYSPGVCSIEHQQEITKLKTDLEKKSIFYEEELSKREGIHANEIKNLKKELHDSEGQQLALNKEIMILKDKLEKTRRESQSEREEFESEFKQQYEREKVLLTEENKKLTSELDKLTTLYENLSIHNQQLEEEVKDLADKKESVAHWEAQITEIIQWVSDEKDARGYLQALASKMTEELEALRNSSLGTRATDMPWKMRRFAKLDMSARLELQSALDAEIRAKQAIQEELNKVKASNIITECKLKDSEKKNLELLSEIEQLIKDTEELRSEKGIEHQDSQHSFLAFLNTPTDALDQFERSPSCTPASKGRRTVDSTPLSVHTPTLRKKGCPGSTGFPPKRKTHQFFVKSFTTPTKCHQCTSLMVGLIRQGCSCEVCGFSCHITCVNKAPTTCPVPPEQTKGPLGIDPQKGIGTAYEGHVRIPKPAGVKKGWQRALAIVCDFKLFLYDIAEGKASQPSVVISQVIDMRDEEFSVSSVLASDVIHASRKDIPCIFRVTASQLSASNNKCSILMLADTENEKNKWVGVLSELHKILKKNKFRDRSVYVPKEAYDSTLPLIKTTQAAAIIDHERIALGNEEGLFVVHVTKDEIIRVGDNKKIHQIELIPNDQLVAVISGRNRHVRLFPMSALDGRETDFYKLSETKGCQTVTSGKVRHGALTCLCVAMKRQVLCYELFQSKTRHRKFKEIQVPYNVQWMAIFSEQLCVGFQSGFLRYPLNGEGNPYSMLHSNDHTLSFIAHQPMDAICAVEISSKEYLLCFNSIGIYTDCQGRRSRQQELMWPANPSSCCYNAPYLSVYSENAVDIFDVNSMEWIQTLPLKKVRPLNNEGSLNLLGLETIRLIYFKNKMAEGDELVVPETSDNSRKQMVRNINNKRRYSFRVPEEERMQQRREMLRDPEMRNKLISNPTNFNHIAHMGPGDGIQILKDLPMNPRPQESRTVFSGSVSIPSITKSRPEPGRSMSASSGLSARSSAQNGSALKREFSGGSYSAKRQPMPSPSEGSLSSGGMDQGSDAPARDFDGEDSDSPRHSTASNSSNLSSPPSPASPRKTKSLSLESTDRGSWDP
Eukaryotic translation initiation factor 2-alpha kinase 1, sequence (Q9BQI3 whole entry): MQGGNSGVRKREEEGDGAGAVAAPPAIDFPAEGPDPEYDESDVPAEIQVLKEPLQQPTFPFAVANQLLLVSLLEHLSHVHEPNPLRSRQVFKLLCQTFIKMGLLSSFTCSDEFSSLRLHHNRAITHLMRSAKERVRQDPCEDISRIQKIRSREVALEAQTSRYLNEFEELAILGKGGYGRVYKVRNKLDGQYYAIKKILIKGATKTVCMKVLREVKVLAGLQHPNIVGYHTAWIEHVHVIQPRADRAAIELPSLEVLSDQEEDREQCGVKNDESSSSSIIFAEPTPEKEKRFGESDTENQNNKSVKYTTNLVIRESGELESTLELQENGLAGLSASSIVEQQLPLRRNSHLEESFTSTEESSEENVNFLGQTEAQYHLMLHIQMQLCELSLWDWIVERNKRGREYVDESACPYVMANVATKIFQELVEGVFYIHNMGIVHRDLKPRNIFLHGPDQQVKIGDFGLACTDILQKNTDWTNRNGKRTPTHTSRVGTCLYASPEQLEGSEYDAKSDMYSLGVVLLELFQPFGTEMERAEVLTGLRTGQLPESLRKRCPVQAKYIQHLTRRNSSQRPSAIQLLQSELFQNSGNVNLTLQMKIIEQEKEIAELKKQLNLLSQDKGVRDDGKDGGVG
Tyrosine-protein kinase HCK, sequence (P08631 whole entry): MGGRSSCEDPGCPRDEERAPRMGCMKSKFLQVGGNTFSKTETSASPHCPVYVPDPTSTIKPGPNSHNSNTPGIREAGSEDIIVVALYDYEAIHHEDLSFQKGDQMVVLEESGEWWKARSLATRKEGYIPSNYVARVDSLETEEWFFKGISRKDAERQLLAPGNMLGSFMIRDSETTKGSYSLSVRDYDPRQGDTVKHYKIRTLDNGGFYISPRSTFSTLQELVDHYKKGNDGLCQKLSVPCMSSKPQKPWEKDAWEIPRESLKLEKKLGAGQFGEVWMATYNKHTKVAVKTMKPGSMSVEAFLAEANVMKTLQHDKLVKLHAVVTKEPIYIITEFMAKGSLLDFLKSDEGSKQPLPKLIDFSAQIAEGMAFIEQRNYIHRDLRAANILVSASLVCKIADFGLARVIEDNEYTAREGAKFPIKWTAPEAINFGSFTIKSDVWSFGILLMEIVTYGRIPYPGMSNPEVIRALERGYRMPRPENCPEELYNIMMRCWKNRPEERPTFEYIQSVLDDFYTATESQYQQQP
Activin receptor type-2B, sequence (Q13705 whole entry): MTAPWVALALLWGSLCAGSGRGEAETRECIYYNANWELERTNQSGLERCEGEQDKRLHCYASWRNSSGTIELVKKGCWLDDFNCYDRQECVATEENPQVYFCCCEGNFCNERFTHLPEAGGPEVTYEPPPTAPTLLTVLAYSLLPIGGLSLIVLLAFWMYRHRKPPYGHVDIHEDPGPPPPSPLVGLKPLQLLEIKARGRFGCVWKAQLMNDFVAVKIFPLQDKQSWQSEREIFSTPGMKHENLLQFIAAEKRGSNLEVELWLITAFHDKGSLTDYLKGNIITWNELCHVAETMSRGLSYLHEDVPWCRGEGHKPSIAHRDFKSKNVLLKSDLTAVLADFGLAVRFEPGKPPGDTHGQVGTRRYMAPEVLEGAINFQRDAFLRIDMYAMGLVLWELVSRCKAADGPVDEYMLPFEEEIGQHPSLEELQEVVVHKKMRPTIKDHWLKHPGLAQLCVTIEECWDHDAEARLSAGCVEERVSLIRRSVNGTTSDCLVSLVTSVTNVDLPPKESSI
NADH dehydrogenase [ubiquinone] 1 alpha subcomplex subunit 13, sequence (Q9P0J0 whole entry, one chain of several): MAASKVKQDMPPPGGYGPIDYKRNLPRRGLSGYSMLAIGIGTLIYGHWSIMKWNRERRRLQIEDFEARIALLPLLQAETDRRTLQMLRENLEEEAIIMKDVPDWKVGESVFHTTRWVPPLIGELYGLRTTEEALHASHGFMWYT
Ribosomal protein S6 kinase alpha-3, sequence (P51812 whole entry): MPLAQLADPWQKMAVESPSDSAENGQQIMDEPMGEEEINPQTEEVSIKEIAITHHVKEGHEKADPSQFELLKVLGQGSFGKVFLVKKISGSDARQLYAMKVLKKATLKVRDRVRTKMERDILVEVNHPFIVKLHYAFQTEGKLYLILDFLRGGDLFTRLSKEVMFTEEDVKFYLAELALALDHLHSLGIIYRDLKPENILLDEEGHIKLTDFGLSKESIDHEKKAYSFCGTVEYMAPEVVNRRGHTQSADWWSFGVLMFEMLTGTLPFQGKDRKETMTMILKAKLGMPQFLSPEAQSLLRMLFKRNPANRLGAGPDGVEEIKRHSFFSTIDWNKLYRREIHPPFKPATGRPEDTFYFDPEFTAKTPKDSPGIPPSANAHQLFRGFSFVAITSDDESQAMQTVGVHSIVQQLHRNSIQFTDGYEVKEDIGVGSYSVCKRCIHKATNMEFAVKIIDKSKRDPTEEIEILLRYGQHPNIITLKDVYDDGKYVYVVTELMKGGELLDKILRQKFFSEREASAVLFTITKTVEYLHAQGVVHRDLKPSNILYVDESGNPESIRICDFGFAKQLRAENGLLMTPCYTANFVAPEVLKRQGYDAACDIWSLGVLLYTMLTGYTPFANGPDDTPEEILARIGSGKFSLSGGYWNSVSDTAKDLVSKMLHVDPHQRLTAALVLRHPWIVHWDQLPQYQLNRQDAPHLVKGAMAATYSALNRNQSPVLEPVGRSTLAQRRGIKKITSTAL

SMILES | Kd [2] | Kd [3] | Kd [4] | Kd [5] | Kd (Activin receptor type-2B) | Kd [6] | Kd (Ephrin type-B receptor 3) | Kd [7] | Kd [8] | Kd [1] | pKd (Ephrin type-B receptor 3)
COC(=O)[C@@]1(O)C[C@H]2O[C@]1(C)n1c3ccccc3c3c4c(c5c6ccccc6n2c5c31)C(=O)NC4 [K-252A] | > 30 µM (inactive) | > 30 µM (inactive) | > 30 µM (inactive) | > 30 µM (inactive) | > 30 µM (inactive) | 2.99 µM (active) | > 30 µM (inactive) | > 30 µM (inactive) | > 30 µM (inactive) | > 30 µM (inactive) | 
CN(C)C(=O)c1cc2cnc(Nc3ccc(N4CCNCC4)cn3)nc2n1C1CCCC1 [RIBOCICLIB] | > 30 µM (inactive) | > 30 µM (inactive) | > 30 µM (inactive) | > 30 µM (inactive) | > 30 µM (inactive) | > 30 µM (inactive) | > 30 µM (inactive) | > 30 µM (inactive) | > 30 µM (inactive) | > 30 µM (inactive) | 
Cc1ccc(-n2nc(C(C)(C)C)cc2NC(=O)NCc2cc(F)ccc2Oc2ccc3c(cnn3CCO)c2)cc1 [PEXMETINIB] | > 30 µM (inactive) | > 30 µM (inactive) | > 30 µM (inactive) | > 30 µM (inactive) | > 30 µM (inactive) | > 30 µM (inactive) |  | > 30 µM (inactive) | > 30 µM (inactive) | > 30 µM (inactive) | 4.55

The next lines start with results.

Kd [2] | Kd [3] | Kd [4] | Kd [5] | Kd (Activin receptor type-2B) | Kd [6] | Kd (Ephrin type-B receptor 3) | Kd [7] | Kd [8] | SMILES | Kd [1] | pKd (Ephrin type-B receptor 3)
> 30 µM (inactive) | > 30 µM (inactive) | > 30 µM (inactive) | > 30 µM (inactive) | > 30 µM (inactive) | > 30 µM (inactive) | > 30 µM (inactive) | > 30 µM (inactive) | > 30 µM (inactive) | COc1ccc(-c2ccc3c(N4CCOC[C@@H]4C)nc(N4CCOC[C@@H]4C)nc3n2)cc1CO [AZD-8055] | > 30 µM (inactive) | 
> 30 µM (inactive) | > 30 µM (inactive) | > 30 µM (inactive) | > 30 µM (inactive) | > 30 µM (inactive) | > 30 µM (inactive) | > 30 µM (inactive) | > 30 µM (inactive) | > 30 µM (inactive) | Cc1cc2c(F)c(Oc3ncnn4cc(OC[C@@H](C)OC(=O)[C@H](C)N)c(C)c34)ccc2[nH]1 [BRIVANIB ALANINATE] | > 30 µM (inactive) | 
